Experimental data published in patent US8501813B2, “γ-secretase inhibitor” (Kabushiki Kaisha Yakult Honsha, priority 2007, dated 2013).
Read-outs that look alike come from different tables or passages of the source. *: point of attachment. Boc = CC(C)(C)OC(=O)*

Experiments:
[1] = system: C99 cells; assay: Cytotoxicity on C99 cells, cell viability by Cell Counting Kit-8; assay type: cell-based, human; conditions: 24 h
Method: The cytotoxicity of four test substances (TLVM-5, TLVM-7, TLVM-8, and TLVM-9) on the C99 cells was measured using a method shown below.
(§1) In the present test, a medium used for the C99 cells was 500 mL of a Dulbecco's Modified Eagle's Medium (DMEM, Sigma-Aldrich Corp.) supplemented with 55 ml of fetal bovine serum (Biosource), 5.5 ml of MEM non-essential amino acids (Gibco), and 5.5 ml of penicillin/streptomycin (Gibco).
The C99 cells were suspended at a concentration of 0.75×10^5 cells/ml in the medium. The suspension was added at a concentration of 100 μL (0.75×10^4 cells)/well to a 96-well collagen plate (Akita Sumitomo Bakelite Co., Ltd.) and cultured for 2 days. Then, the medium (corresponding to 50 μL/well) in the wells was removed, and a fresh medium was added thereto at a concentration of 30 μL/well. […] Then, the cell viability was measured using Cell Counting Kit-8 (Dojindo Laboratories).

[2] = biological target: T1, γ-secretase (Homo sapiens, UniProt P49768); assay: Aβ secretion by C99 cells (HEK293 stably expressing APP-C99), γ-secretase inhibitory effect, Aβ ELISA of culture supernatant; assay type: cell-based; conditions: for IC50: interpolated from the two concentrations that bracket 50%
Text: HEK293 cells (ATCC) were transfected with APP C99 pcDNA3.1 (the nucleotide sequence of its coding region is shown in SEQ ID NO: 1) (J. Biol. Chem., 2003, 278, 49448-49458). Cell strains (C99 cells) confirmed to stably express APP-C99 (artificial APP fragment that originally lacked a polypeptide portion to be cleaved by α- or β-secretase at the first stage in the two-stage reaction of Aβ production from APP) were used to study the γ-secretase inhibitory effects of four test substances (TLVM-5, TLVM-7, TLVM-8, and TLVM-9) in vitro.
as §1
The C99 cells were suspended at a concentration of 5×10^4 cells/ml in the medium. The suspension was added at a concentration of 1 ml (5×10^4 cells)/well to a 24-well collagen plate (Akita Sumitomo Bakelite Co., Ltd.) and cultured for 3 days. Then, the medium in the wells was removed, and the wells were washed with a medium (1 ml/well). The medium was removed, and a fresh medium was then added thereto at a concentration of 0.4 ml/well. The cells were exposed to the test substances and positive controls and incubated for 24 hours, and the culture supernatants were collected. The positive controls used were L-685,458 (CALBIOCHEM) and Boc-Leu-Val-Met-Leu-OMe (hereinafter, referred to as LVML-1) disclosed in Example 1 of Patent Document 1 (WO03/091278). The exposure concentrations were set to four concentrations, 0.3, 1, 3, and 10 μmol/L, for all the test substances and the positive controls. The concentrations of Aβ (1-40) and Aβ (1-42) in the culture supernatants were measured using Human Amyloid β (1-40) (N) Assay Kit (L)-IBL and Human Amyloid β (1-42) (N) Assay Kit (L)-IBL (Immuno-Biological Laboratories, Co., Ltd.). The amounts of Aβ (1-40) and Aβ (1-42) secreted were calculated by subtracting the concentrations of Aβ (1-40) and Aβ (1-42) originally contained in the medium before the C99 cell inoculation, from the measured concentrations thereof, respectively. Moreover, when the Aβ secretion rate of a negative control (5% DMSO-containing medium, resulting in 1% DMSO at the final concentration) is defined as 100%, Aβ secretion rates at each concentration of the test substances and the positive controls were calculated.
The TLVM-5, TLVM-7, TLVM-8, and TLVM-9 confirmed in Example 8 to have strong inhibitory activities against γ-secretase activities were subjected to an additional experiment at low concentrations (exposure concentrations were set to three concentrations, […], for the test substances and to four concentrations, 0.1, 0.3, 1, and 3 μmol/L, for the positive control).
Moreover, Aβ secretion rates at two concentrations of the test substance that bracket the concentration at which Aβ secretion was inhibited by 50% (IC50) were used to calculate IC50 according to the following equation: IC50:10^[LOG(A/B)*(50−C)/(D−C)+LOG(B)],wherein
A: of the two points that bracket 50% inhibition, the higher concentration of the test substance,
B: of the two points that bracket 50% inhibition, the lower concentration of the test substance,
C: secretion rate (%) at the concentration B, and
D: secretion rate (%) at the concentration A.

[3] = biological target: T1, γ-secretase; assay: Substrate specificity: β-Alcα secretion by HEK293 cells transfected with FLAG Alcα C150, anti-FLAG immunoprecipitation/western blot; assay type: cell-based; conditions: for (ii) β-Alcα secretion rate of HEK293 cells: 24 h, FLAG Alcα C150, negative control = 100%
Method: (§2) Of families constituting human Alcadein (hereinafter, referred to as Alc) known as a substrate for γ-secretase to colocalize with APP in brain neurons, an artificial Alcα fragment (hereinafter, referred to as Alcα C150) whose first extracellular cleavage site and γ-secretase cleavage site were determined was used to study the substrate specificity of the γ-secretase inhibitor of the present invention. β-Alcα produced from a first cleavage construct of Alcα cannot be quantified by sELISA used in Aβ measurement. Therefore, proteins with an attached FLAG tag at the N termini of first cleavage constructs of Alcα and of C99 were expressed by cells. FLAG-Aβ-like peptides secreted into a medium were collected by immunoprecipitation using anti-FLAG antibodies and detected by western blotting using the antibodies. A specific method thereof is shown below.
(§3) HEK293 cells (ATCC) (1×10^7 cells/10 cm dish) cultured in 6 ml of 10% FCS-containing DMEM (Wako Pure Chemical Industries, Ltd.) were transfected with FLAG APP C99 pcDNA3.1 (the nucleotide sequence of its coding region is shown in SEQ ID NO: 2) (J. Biol. Chem., 2003, 278, 49448-49458 (which was prepared from pcDNA3-APPC99)) or with FLAG Alcα C150 pcDNA3.1 (the nucleotide sequence of its coding region is shown in SEQ ID NO: 3) (J. Biol. Chem., 2004, 279, 24343-24354 (which was the same as pcDNA3AlcαΔE)) using Lipofectamine 2000 (Invitrogen Corp.) according to the protocol included in the reagent. Each inhibitor and a positive control (γ-Secretase Inhibitor IX (DAPT)) (Calbiochem Contact Information) were separately added at a concentration of 0.2 or 2 μmol/L. The same dose of DMSO (Wako Pure Chemical Industries, Ltd.) thereas was added as a negative control. 24 hours later, the culture supernatants were collected, and samples were preliminarily purified using beads (100 μL of 50% (v/v) Protein-G Sepharose (GE Healthcare)). Then, 15 μL of 50% (v/v) anti-FLAG antibody M2 beads (Sigma-Aldrich Corp.) were added thereto, and the samples were incubated at 4° C. for 1 hour. The beads were collected by centrifugation and washed three times with a buffer (10 mM Tris-HCl [pH 8.0], 140 mM NaCl, 0.1% n-octyl glucoside, 0.025% sodium azide), and Aβ and β-Alcα in the medium were collected. The proteins were subjected to SDS-PAGE using a 15% Tris-Tricine gel (Anal Biochem., 1987, 166 (2), 368-379) and then transferred to a membrane. The membrane was boiled for 5 minutes in PBS. Then, anti-FLAG M2 antibodies (5 μg/ml) (Sigma-Aldrich Corp.) were added thereto, and the membrane was incubated, followed by detection using a western blotting detection reagent ECL (GE Healthcare). This signal was quantified using Versa-doc system (Bio-Rad Laboratories, Inc.) to calculate protein secretion rates (the protein secretion rate of the negative control is defined as 100%).

[4] = biological target: T1, γ-secretase; assay: Substrate specificity: FLAG-Aβ secretion by HEK293 cells transfected with FLAG APP C99, anti-FLAG immunoprecipitation/western blot; assay type: cell-based; conditions: for (i) Aβ secretion rate of HEK293 cells: 24 h, FLAG APP C99, negative control = 100%
Method: as §2, §3

[5] = Example 8, exposure 0.3 μmol/L, 24 h
[6] = Example 8, exposure 0.3 μmol/L, 24 h, negative control = 100%
[7] = Example 8, exposure 1 μmol/L, 24 h
[8] = Example 8, exposure 3 μmol/L, 24 h
[9] = Example 8, exposure 10 μmol/L, 24 h

| Molecule | Aβ (1-42) secretion rate of C99 cells [2, 5] [%] | Aβ [(1-40) + (1-42)] secretion rate of C99 cells [2, 5] [%] | Aβ (1-40) secretion rate of C99 cells [2, 6] [%] | Aβ (1-40) secretion rate of C99 cells [2, 7] [%] | Aβ (1-42) secretion rate of C99 cells [2, 7] [%] | Aβ [(1-40) + (1-42)] secretion rate of C99 cells [2, 7] [%] | Aβ (1-40) secretion rate of C99 cells [2, 8] [%] | Aβ (1-42) secretion rate of C99 cells [2, 8] [%] | Aβ [(1-40) + (1-42)] secretion rate of C99 cells [2, 8] [%] | Aβ (1-40) secretion rate of C99 cells [2, 9] [%] | Aβ (1-42) secretion rate of C99 cells [2, 9] [%] | Aβ [(1-40) + (1-42)] secretion rate of C99 cells [2, 9] [%] | (ii) β-Alcα secretion rate of HEK293 cells ([3]; 0.2 μmol/L) [%] | (ii) β-Alcα secretion rate of HEK293 cells ([3]; 2 μmol/L) [%] | (i)/(ii) ratio, Aβ / β-Alcα secretion rates ([4]; 0.2 μmol/L) | (i) Aβ secretion rate of HEK293 cells ([4]; 0.2 μmol/L) [%] | (i)/(ii) ratio, Aβ / β-Alcα secretion rates ([4]; 2 μmol/L) | (i) Aβ secretion rate of HEK293 cells ([4]; 2 μmol/L) [%] | also measured |
| --- | --- | --- | --- | --- | --- | --- | --- | --- | --- | --- | --- | --- | --- | --- | --- | --- | --- | --- | --- |
| CC(C)C[C@H](NC(=O)[C@H](Cc1ccccc1)C[C@@H](O)[C@H](Cc1ccccc1)NC(=O)OC(C)(C)C)C(=O)N[C@@H](Cc1ccccc1)C(N)=O [L-685, 458, reference compound] | 96 | 101 | 101 | 68 | 70 | 68 | 38 | 49 | 39 | 9 | 24 | 9 | – | – | – | – | – | – | Cell viability of C99 cells ([1]; exposure 0.3 μmol/L): 133%; Cell viability of C99 cells ([1]; exposure 1 μmol/L): 125%; Cell viability of C99 cells ([1]; exposure 3 μmol/L): 110%; Cell viability of C99 cells ([1]; exposure 10 μmol/L): 99%; Aβ (1-40) secretion rate of C99 cells ([2]; Example 9, exposure 0.1 μmol/L): 114%; Aβ (1-42) secretion rate of C99 cells ([2]; Example 9, exposure 0.1 μmol/L): 97%; Aβ [(1-40) + (1-42)] secretion rate of C99 cells ([2]; Example 9, exposure 0.1 μmol/L): 113%; Aβ (1-40) secretion rate of C99 cells ([2]; Example 9, exposure 0.3 μmol/L): 90%; Aβ (1-42) secretion rate of C99 cells ([2]; Example 9, exposure 0.3 μmol/L): 91%; Aβ [(1-40) + (1-42)] secretion rate of C99 cells ([2]; Example 9, exposure 0.3 μmol/L): 90%; Aβ (1-40) secretion rate of C99 cells ([2]; Example 9, exposure 1 μmol/L): 72%; Aβ (1-42) secretion rate of C99 cells ([2]; Example 9, exposure 1 μmol/L): 87%; Aβ [(1-40) + (1-42)] secretion rate of C99 cells ([2]; Example 9, exposure 1 μmol/L): 73%; Aβ (1-40) secretion rate of C99 cells ([2]; Example 9, exposure 3 μmol/L): 32%; Aβ (1-42) secretion rate of C99 cells ([2]; Example 9, exposure 3 μmol/L): 8%; Aβ [(1-40) + (1-42)] secretion rate of C99 cells ([2]; Example 9, exposure 3 μmol/L): 31%; IC50 ([2]; Example 9, read-out: IC50, Aβ (1-40) secretion of C99 cells): 1.8 µM; IC50 ([2]; Example 9, read-out: IC50, Aβ (1-42) secretion of C99 cells): 1.7 µM |
| C[C@H](NC(=O)Cc1cc(F)cc(F)c1)C(=O)N[C@H](C(=O)OC(C)(C)C)c1ccccc1 [DAPT, reference compound] | – | – | – | – | – | – | – | – | – | – | – | – | 23 | 16 | 0.35 | 8 | 1.26 | 20 | – |
| CSCC[C@H](NC(=O)[C@@H](NC(=O)[C@H](CC(C)C)C[C@@H](O)[C@@H](NC(=O)OC(C)(C)C)[C@@H](C)O)c1ccccc1)C(=O)NCc1ccccc1 [TLVM-11, [5S-(tert-butoxycarbonylamino)-4R,6R-dihydroxy-2R-(2-methylpropyl)heptanoyl]-L-phenylglycyl-L-methionine benzylamide] | – | – | – | – | – | – | – | – | – | – | – | – | 68 | – | 0.12 | 8 | – | – | γ cleavage of the Alcα-C150, in words ([3]; 0.2 μmol/L): did not inhibit; cleavage of APP-C99, in words ([4]; 0.2 μmol/L): specifically inhibited |
| Boc-Leu-Val-Met-Leu-OMe (Boc-LVML-OMe; SMILES COC(=O)[C@H](CC(C)C)NC(=O)[C@H](CCSC)NC(=O)[C@@H](NC(=O)[C@H](CC(C)C)NC(=O)OC(C)(C)C)C(C)C) [LVML-1, reference compound] | 95 | 138 | 140 | 112 | 78 | 110 | 106 | 104 | 105 | 83 | 61 | 82 | – | – | – | – | – | – | – |
| CSCC[C@H](NC(=O)[C@H](C)NC(=O)[C@H](CC(C)C)C[C@@H](O)[C@@H](NC(=O)OC(C)(C)C)[C@@H](C)O)C(=O)NCc1ccccc1 [TLVM-10, [5S-(tert-butoxycarbonylamino)-4R,6R-dihydroxy-2R-(2-methylpropyl)heptanoyl]-L-alanyl-L-methionine benzylamide] | – | – | – | – | – | – | – | – | – | – | – | – | – | 94 | – | – | 0.39 | 37 | γ cleavage of the Alcα-C150, in words ([3]; 2 μmol/L): did not inhibit; cleavage of APP-C99, in words ([4]; 2 μmol/L): specifically inhibited |
